Data on 26 molecules can be found in ChEMBL document CHEMBL5230096, “A comprehensive insight on the recent development of Cyclic Dependent Kinase inhibitors as anticancer agents” (Eur J Med Chem, 2020).

The first test concerns the target T1, CDK2/Cyclin A2 (Homo sapiens, UniProt P24941). Description: Inhibition of CDK2/cyclin A2 (unknown origin) using histone as substrate in presence of ATP by luminescent ADP detection assay. The test is classed as protein-complex assay.
Conditions: not given
For the molecule `O=C(Nc1ccc(O)cc1)c1cnn(-c2cc(NCc3ccccc3)ncn2)c1`, the IC50 was < 0.02 µM.

Consider `O=C(Nc1ccc(F)cc1)c1cnn(-c2cc(NCc3ccccc3)ncn2)c1`, for which the concentration for half-maximal inhibition (IC50) was < 0.02 µM.

Take `COc1ccc(NC(=O)c2cnn(-c3cc(NCc4ccccc4)ncn3)c2)cc1`: the IC50 was < 0.02 µM.

`CN1CCN(C(=O)c2cnn(-c3cc(NCc4ccccc4)ncn3)c2)CC1`: the half-maximal inhibitory concentration (IC50) was < 0.02 µM.

Another test concerns MCF7. Kind of test: Antiproliferative activity against human MCF7 cells assessed as reduction in cell proliferation incubated for 48 hrs by Sulfo-Rhodamine-B stain (SRB) assay. It is filed as functional, cell-based. Conditions: MCF7, 48 h.
For the molecule `Cc1ccc(S(=O)(=O)Nc2ccc(-c3ccnc(Nc4ccc(S(=O)(=O)Nc5cc(C)no5)cc4)c3C#N)cc2)cc1`, the half-inhibitory concentration (IC50) is 20.4 µM.

`NS(=O)(=O)c1ccc(S(=O)(=O)Nc2cccc3c(Cl)c[nH]c23)cc1`: the IC50 is 36.3 µM.

The test system of a further test is HeLa. Kind of test: Antiproliferative activity against human Hela cells assessed as reduction in cell viability by MTT assay.
Conditions: not given
The test is classed as functional, cell-based.
Turning to `CCOC(=O)C1=C(Cn2cc(COc3ccccc3C3NC(=O)NC(CCl)=C3C(=O)OCC)nn2)NC(=O)NC1c1ccc([N+](=O)[O-])cc1` (stereo unspecified), the half-inhibitory concentration (IC50) was 18 µM.

For the molecule `CCOC(=O)C1=C(Cn2cc(COc3ccccc3C3NC(=O)NC(CCl)=C3C(=O)OCC)nn2)NC(=O)NC1c1ccccc1F` (stereo unspecified), the IC50 was determined as 18 µM.

For `CCOC(=O)C1=C(CCl)NC(=O)NC1c1ccc(OCc2cn(CC3=C(C(=O)OCC)C(c4ccc([N+](=O)[O-])cc4)NC(=O)N3)nn2)cc1` (stereo unspecified), the IC50 was determined as 18 µM.

Consider `CCOC(=O)C1=C(Cn2cc(COc3ccccc3C3NC(=O)NC(CCl)=C3C(=O)OCC)nn2)NC(=O)NC1c1ccc(O)c(OC)c1` (stereo unspecified), for which the IC50 worked out at 18 µM.

A further test has as its target Cyclin-dependent kinase 2 (Homo sapiens, UniProt P24941).
Conditions: not given
Molecule `O=C1CC(=O)N(c2ccc(F)cc2)C(=S)N1C(=O)c1ccccc1` gave an IC50 of 4.5 µM.

For `C[C@@H](CO)Nc1nc(N)c(N=O)c(OCC2CCCCC2)n1`, the IC50 was 0.16 µM.

As for `O=C(c1ccccc1)N1C(=O)C(C2C(=O)N(C(=O)c3ccccc3)C(=S)N(c3ccc(F)cc3)C2=O)C(=O)N(c2ccc(F)cc2)C1=S` (stereo unspecified), the IC50 was found to be 5.2 µM.

On to `C[C@@H](CO)Nc1nc(N)c(/[N+]([O-])=N/C#N)c(OCC2CCCCC2)n1`, for which 0.3 µM corresponded to half-maximal inhibition (IC50).

The next test deals with T1, CDK2/Cyclin A2. Description: Inhibition of CDK2/Cyclin A2 (unknown origin) incubated for 40 mins in presence of ATP by Kinase-Glo Plus luminescence kinase assay. It is filed as protein-complex assay.
Conditions: not given
On to `CCOC(=O)c1cnn2c(-c3ccc(Cl)cc3)nc(NCc3ccccc3)nc12`, for which the IC50 amounted to 2.09 µM.

Regarding `O=C(NCCc1ccccc1)c1cnn2c(-c3ccc(Cl)cc3)nc(NCCc3ccccc3)nc12`, the IC50 turned out to be 1.85 µM.

Another test deals with CDK2/Cyclin A2 (Homo sapiens) (UniProt P24941+P20248). Description: Inhibition of CDK2/Cyclin A2 (unknown origin) at 10 uM incubated for 40 mins in presence of ATP by Kinase-Glo Plus luminescence kinase assay. It is filed as protein-complex assay.
Conditions: not given
With `CCOC(=O)c1cnn2c(-c3ccc(Cl)cc3)nc(NCc3ccccc3)nc12`, the inhibition turned out to be 82.4%.

Take `O=C(NCCc1ccccc1)c1cnn2c(-c3ccc(Cl)cc3)nc(NCCc3ccccc3)nc12`: the inhibition is 82%.

A further test concerns Panel NCI-60 (60 carcinoma cell lines). Description: Antiproliferative activity against human Panel NCI-60 (60 carcinoma cell lines) assessed as reduction in cell viability at 10 uM. The test is classed as functional.
Conditions: not given
As for `CCOC(=O)c1cnn2c(-c3ccc(Cl)cc3)nc(NCc3ccccc3)nc12`, the inhibition at 10 µM stood at 41.8%.

Turning to `O=C(NCCc1ccccc1)c1cnn2c(-c3ccc(Cl)cc3)nc(NCCc3ccccc3)nc12`, the inhibition at 10 µM worked out at 33.3%.

The next test deals with Cyclin-dependent kinase 2/cyclin E (Homo sapiens, UniProt P24941). Description: Inhibition of CDK2/Cyclin E (unknown origin) expressed in baculovirus infected Sf9 cells using histone H1 as substrate in presence of gamma32P-ATP by scintillation counter analysis.
Conditions: not given
On to `O=c1[nH]cc(-c2ccccc2F)c2nccn12`, for which the half-inhibitory concentration (IC50) amounted to 3.2 µM.

Turning to `O=c1[nH]cc(-c2ccc(O)cc2)c2nccn12`, the IC50 is 1.3 µM.

For the molecule `O=c1[nH]cc(-c2ccccc2Cl)c2nccn12`, the IC50 is 1.5 µM.

On to `O=c1[nH]cc(-c2cccc(F)c2F)c2nccn12`, for which the IC50 was found to be 4.8 µM.

For another test, the system named is Human immunodeficiency virus 1. Description: Antiviral activity against HIV1. The test is classed as functional, organism-based.
Conditions: not given
In turn, `O=C(c1ccccc1)N1C(=O)C(C2C(=O)N(C(=O)c3ccccc3)C(=S)N(c3ccc(F)cc3)C2=O)C(=O)N(c2ccc(F)cc2)C1=S` (stereo unspecified) showed an IC50 of 2.7 µM.

Take `CC(=O)N1C(=O)C(C(=O)c2ccc(F)cc2)C(=O)N(c2ccc(S(=O)(=O)Nc3nccs3)cc2)C1=S` (stereo unspecified): it took 3.2 µM to reach half-maximal inhibition (IC50).

The molecule `O=C1CC(=O)N(c2ccc(S(=O)(=O)Nc3nccs3)cc2)C(=S)N1C(=O)c1ccccc1` had an IC50 of 4.5 µM.

`O=C1CC(=O)N(c2ccc(S(=O)(=O)Nc3ncccn3)cc2)C(=S)N1C(=O)c1ccccc1` yielded a half-maximal inhibitory concentration (IC50) of 3.1 µM.

The target in the next test is CDK9/cyclin T1 (Homo sapiens, UniProt P50750). Kind of test: Inhibition of CDK9/cyclin T1 (unknown origin) assessed as inhibition constant. The test is classed as protein-complex assay.
CDK9/cyclin T1, sequence (O60563 whole entry): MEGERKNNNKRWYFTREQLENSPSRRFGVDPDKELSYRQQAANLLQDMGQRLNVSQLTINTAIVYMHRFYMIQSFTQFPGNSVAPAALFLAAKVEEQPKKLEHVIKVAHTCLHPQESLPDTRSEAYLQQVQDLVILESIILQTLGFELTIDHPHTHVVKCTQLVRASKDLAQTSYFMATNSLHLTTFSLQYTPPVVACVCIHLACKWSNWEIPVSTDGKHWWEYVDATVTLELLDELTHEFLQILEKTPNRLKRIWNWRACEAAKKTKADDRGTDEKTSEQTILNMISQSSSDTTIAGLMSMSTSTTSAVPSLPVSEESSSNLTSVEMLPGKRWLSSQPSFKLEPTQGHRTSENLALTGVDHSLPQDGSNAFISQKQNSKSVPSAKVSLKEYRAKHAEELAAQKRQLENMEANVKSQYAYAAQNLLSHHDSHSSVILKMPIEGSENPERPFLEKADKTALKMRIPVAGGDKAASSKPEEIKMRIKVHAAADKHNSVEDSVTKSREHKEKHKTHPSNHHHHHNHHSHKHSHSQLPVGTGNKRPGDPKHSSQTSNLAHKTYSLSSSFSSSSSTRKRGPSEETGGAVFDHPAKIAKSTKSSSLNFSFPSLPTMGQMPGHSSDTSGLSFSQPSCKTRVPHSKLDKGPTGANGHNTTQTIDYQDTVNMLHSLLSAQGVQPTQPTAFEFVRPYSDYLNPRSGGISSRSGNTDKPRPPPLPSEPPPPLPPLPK
CDK9/cyclin T1, sequence (P50750 whole entry): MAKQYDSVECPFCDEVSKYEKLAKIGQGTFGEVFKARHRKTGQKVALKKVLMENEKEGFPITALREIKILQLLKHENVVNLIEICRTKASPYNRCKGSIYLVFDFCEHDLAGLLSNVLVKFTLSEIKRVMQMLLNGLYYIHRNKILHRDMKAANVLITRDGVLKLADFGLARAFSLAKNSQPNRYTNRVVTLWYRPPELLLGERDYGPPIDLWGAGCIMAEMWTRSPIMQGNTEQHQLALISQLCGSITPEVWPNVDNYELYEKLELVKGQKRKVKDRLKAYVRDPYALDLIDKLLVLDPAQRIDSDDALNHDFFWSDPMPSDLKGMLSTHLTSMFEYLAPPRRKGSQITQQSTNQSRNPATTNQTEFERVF
Conditions: not given
Take `COc1ccc(C2CC(c3c(O)c4ccccc4oc3=O)=NN2c2ccccc2)cc1OC` (stereo unspecified): the Ki amounted to 0.00326 µM.

Take `CN(C)c1ccc(-c2cc(-c3c(O)c4ccccc4oc3=O)nc(N)c2C#N)cc1`: the Ki is 0.00326 µM.

With `C/C(=N\N=C\c1ccccc1)c1c(O)c2ccccc2oc1=O`, the Ki amounted to 0.00326 µM.
